Marks after values point to notes of the source that are not given here. Non-standard residues stand in square brackets, D forms with d. No end group written: not given here. Moiety A = not defined here; Nva = CCC[C@H](N)C(=O)O; Aib = CC(C)(N)C(=O)O
Tested on: type 2 diabetic mouse (db/db) model
Experiment: Efficacy study in db/db mice at 10 nM/kg dose (blood glucose, body weight, food intake)
Type: in vivo
Conditions: 10 nM/kg s.c. single dose
Method: The effect of compounds of present invention on blood glucose, food intake and body weight was studied in mice. This study was performed in a type 2 diabetic mouse (db/db) model. […] Baseline blood glucose was measured from all the animals. […] All the animals were administered with test items subcutaneously. […] Delta blood glucose (mM) was calculated.

[1] = Study 3, db/db mice, 0 hr (baseline)

Substance: Compound 8: SEQ ID 08 polypeptide, C-terminal Lys40 acylated with Moiety A (Y[Aib]EGTFTSDYSI[Nva]LEKIAAQEFVNWLLAGGPSSGAPPPSK(Moiety A)-NH2; reading uncertain)
- Cumulative food Intake (g) 0-48 hr. vs. Baseline, Mean (Study 3, db/db mice): 4.0*** g
- Cumulative food Intake (g) 0-96 hr. vs. Baseline, Mean (Study 3, db/db mice): 13.9*** g
- Delta Blood Glucose (mM) Mean [1]: 0 mM
- Delta Blood Glucose (mM) Mean (Study 3, db/db mice, 4 hr): −13.6*** mM
- Delta Blood Glucose (mM) Mean (Study 3, db/db mice, 8 hr): −13.6*** mM
- Delta Blood Glucose (mM) Mean (Study 3, db/db mice, 12 hr): −13.6*** mM
- Delta Blood Glucose (mM) Mean (Study 3, db/db mice, 24 hr): −8.5*** mM
- Body Wt. Change (%) 48 hr. vs. Baseline, Mean (Study 3, db/db mice, 48 hr): −3.1*** %
- Delta Blood Glucose (mM) Mean (Study 3, db/db mice, 48 hr): −5.6* mM
- Delta Blood Glucose (mM) Mean (Study 3, db/db mice, 72 hr): -1.8 mM
- Body Wt. Change (%) 96 hr. vs. Baseline, Mean (Study 3, db/db mice, 96 hr): −2.8*** %
- Delta Blood Glucose (mM) Mean (Study 3, db/db mice, 96 hr): -0.6 mM

Substance: Compound 9: SEQ ID 09 polypeptide (C-terminal Arg, free acid), Lys20 acylated with Moiety A (Y[Aib]EGTFTSDYSI[Nva]LDKIAQK(Moiety A)AFVQWLIAGGPSSGAPPPSR-OH; reading uncertain)
- Cumulative food Intake (g) 0-48 hr. vs. Baseline, Mean (Study 3, db/db mice): 4.2*** g
- Cumulative food Intake (g) 0-96 hr. vs. Baseline, Mean (Study 3, db/db mice): 16.7*** g
- Delta Blood Glucose (mM) Mean [1]: 0 mM
- Delta Blood Glucose (mM) Mean (Study 3, db/db mice, 4 hr): −13.1*** mM
- Delta Blood Glucose (mM) Mean (Study 3, db/db mice, 8 hr): −12.7*** mM
- Delta Blood Glucose (mM) Mean (Study 3, db/db mice, 12 hr): −12.1*** mM
- Delta Blood Glucose (mM) Mean (Study 3, db/db mice, 24 hr): −8.7*** mM
- Body Wt. Change (%) 48 hr. vs. Baseline, Mean (Study 3, db/db mice, 48 hr): −3.4*** %
- Delta Blood Glucose (mM) Mean (Study 3, db/db mice, 48 hr): −7.1*** mM
- Delta Blood Glucose (mM) Mean (Study 3, db/db mice, 72 hr): −5.6* mM
- Body Wt. Change (%) 96 hr. vs. Baseline, Mean (Study 3, db/db mice, 96 hr): −3.8*** %
- Delta Blood Glucose (mM) Mean (Study 3, db/db mice, 96 hr): 0 mM

Substance: Compound 12: SEQ ID 12 polypeptide, Lys20 acylated with Moiety A (Y[Aib]EGTFTSDYSIILDKIAQK(Moiety A)AFVQWLIAGGPSSGAPPPS-NH2; reading uncertain)
- Cumulative food Intake (g) 0-48 hr. vs. Baseline, Mean (Study 4, db/db mice): 10.2* g
- Cumulative food Intake (g) 0-96 hr. vs. Baseline, Mean (Study 4, db/db mice): 26.0 g
- Delta Blood Glucose (mM) Mean (Study 4, db/db mice, 0 hr (baseline)): 0 mM
- Delta Blood Glucose (mM) Mean (Study 4, db/db mice, 4 hr): −14.6*** mM
- Delta Blood Glucose (mM) Mean (Study 4, db/db mice, 8 hr): −14.8*** mM
- Delta Blood Glucose (mM) Mean (Study 4, db/db mice, 12 hr): −14.9*** mM
- Delta Blood Glucose (mM) Mean (Study 4, db/db mice, 24 hr): −4.8** mM
- Body Wt. Change (%) 48 hr. vs. Baseline, Mean (Study 4, db/db mice, 48 hr): −3.0*** %
- Delta Blood Glucose (mM) Mean (Study 4, db/db mice, 48 hr): 2.5 mM
- Delta Blood Glucose (mM) Mean (Study 4, db/db mice, 72 hr): 3.9 mM
- Body Wt. Change (%) 96 hr. vs. Baseline, Mean (Study 4, db/db mice, 96 hr): −0.4%
- Delta Blood Glucose (mM) Mean (Study 4, db/db mice, 96 hr): 6.8 mM
